ChEMBL document CHEMBL5223123, “Synthesis and pharmacological characterization of multiply substituted 2H-chromene derivatives as P2Y6 receptor antagonists” (Bioorg Med Chem Lett, 2022)
Values belong to the compound of their own block, whether it stands above or below them.

Columns and labels:
P2Y purinoceptor 6 [1] = target: T1, P2Y purinoceptor 6 (Homo sapiens, UniProt Q15077); experiment: Antagonist activity at human P2Y6R expressed in human 1321N1 cells assessed as inhibition of […] calcium mobilization by FLIPR assay; type: cell-based
P2Y purinoceptor 6 [2] = target: P2Y purinoceptor 6 (Mus musculus, UniProt Q9ERK9); experiment: Antagonist activity at mouse P2Y6R expressed in human 1321N1 cells assessed as inhibition of […] calcium mobilization by FLIPR assay; type: cell-based
[3] = target: P2Y purinoceptor 1 (Meleagris gallopavo) (UniProt P49652); experiment: Antagonist activity at Meleagris P2Y1R expressed in human 1321N1 cells assessed as inhibition of […] calcium mobilization at 100 uM by FLIPR assay relative to control; type: cell-based; parameters: scale not given: the % may be the effect or the level left
[4] = target: P2Y purinoceptor 2 (Homo sapiens) (UniProt P41231); experiment: Antagonist activity at human P2Y2R expressed in human 1321N1 cells assessed as inhibition of […] calcium mobilization at 100 uM by FLIPR assay relative to control; type: cell-based; parameters: scale not given: the % may be the effect or the level left
[5] = target: P2Y purinoceptor 4 (Homo sapiens) (UniProt P51582); experiment: Antagonist activity at human P2Y4R expressed in human 1321N1 cells assessed as inhibition of […] calcium mobilization at 100 uM by FLIPR assay relative to control; type: cell-based; parameters: scale not given: the % may be the effect or the level left
HEK293 = experiment: Cytotoxicity against HEK293 cells assessed as reduction in cell viability at 100 uM measured after 24 hrs by MTT assay relative to control; type: toxicity, cell-based; conditions: human, hek293, 24 h
D(1B) dopamine receptor = D(1B) dopamine receptor (Homo sapiens, UniProt P21918); experiment: Binding affinity to dopamine 5 receptor (unknown origin)
[6] = target: Sigma intracellular receptor 2 (Homo sapiens, UniProt Q5BJF2); experiment: Binding affinity to sigma 2 receptor (unknown origin)
[7] = target: P2Y purinoceptor 6 (Mus musculus) (UniProt Q9ERK9); experiment: Antagonist activity at mouse P2Y6R expressed in human 1321N1 cells assessed as inhibition of […] calcium mobilization at 20 uM by FLIPR assay relative to control; type: cell-based; parameters: scale not given: the % may be the effect or the level left
P2Y purinoceptor 6 [8] = target: T1, P2Y purinoceptor 6; experiment: Antagonist activity at human P2Y6R expressed in human 1321N1 cells assessed as inhibition of […] calcium mobilization at 100 uM by FLIPR assay relative to control; type: cell-based; parameters: scale not given: the % may be the effect or the level left
D(3) dopamine receptor = D(3) dopamine receptor (Homo sapiens, UniProt P35462); experiment: Binding affinity to dopamine 3 receptor (unknown origin)
[9] = target: T2, Alpha-2C adrenergic receptor (Homo sapiens, UniProt P18825); experiment: Binding affinity to adrenergic alpha 2c receptor (unknown origin)
T2 sequence (P18825 whole entry): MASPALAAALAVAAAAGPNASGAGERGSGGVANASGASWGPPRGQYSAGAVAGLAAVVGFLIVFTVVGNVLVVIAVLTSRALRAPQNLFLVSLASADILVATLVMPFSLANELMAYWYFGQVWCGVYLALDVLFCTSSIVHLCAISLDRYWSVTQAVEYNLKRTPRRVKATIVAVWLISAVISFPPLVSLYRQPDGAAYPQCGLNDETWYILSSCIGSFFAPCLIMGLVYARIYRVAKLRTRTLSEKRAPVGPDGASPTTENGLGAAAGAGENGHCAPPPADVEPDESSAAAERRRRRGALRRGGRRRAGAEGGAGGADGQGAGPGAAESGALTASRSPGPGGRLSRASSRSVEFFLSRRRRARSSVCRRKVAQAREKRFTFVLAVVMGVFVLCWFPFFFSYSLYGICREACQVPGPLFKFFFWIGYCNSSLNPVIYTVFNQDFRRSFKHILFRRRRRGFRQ

[10] = target: Sigma non-opioid intracellular receptor 1 (Homo sapiens, UniProt Q99720); experiment: Binding affinity to sigma 1 receptor (unknown origin)
Histamine H1 receptor = Histamine H1 receptor (Homo sapiens, UniProt P35367); experiment: Binding affinity to histamine H1 receptor (unknown origin)
[11] = target: Beta-3 adrenergic receptor (Homo sapiens, UniProt P13945); experiment: Binding affinity to adrenergic beta 3 (unknown origin)
[12] = target: 5-hydroxytryptamine receptor 2A (Homo sapiens, UniProt P28223); experiment: Binding affinity to 5-HT2A (unknown origin)
5-hydroxytryptamine receptor 2A, sequence (P28223 whole entry): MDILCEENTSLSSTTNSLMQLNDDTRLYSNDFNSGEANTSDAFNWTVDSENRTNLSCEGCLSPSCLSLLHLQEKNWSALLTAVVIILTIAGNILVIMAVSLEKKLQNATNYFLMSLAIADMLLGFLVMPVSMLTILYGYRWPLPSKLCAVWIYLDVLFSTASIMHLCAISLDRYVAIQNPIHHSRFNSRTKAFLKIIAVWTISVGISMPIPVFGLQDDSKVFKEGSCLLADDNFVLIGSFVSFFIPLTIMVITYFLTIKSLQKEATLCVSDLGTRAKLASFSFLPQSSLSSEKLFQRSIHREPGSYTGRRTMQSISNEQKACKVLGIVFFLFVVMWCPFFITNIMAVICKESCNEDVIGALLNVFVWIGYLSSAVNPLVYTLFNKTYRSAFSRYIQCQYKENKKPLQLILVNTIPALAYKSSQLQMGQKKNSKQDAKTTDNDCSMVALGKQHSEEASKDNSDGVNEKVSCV

P2Y purinoceptor 1 (Meleagris gallopavo), sequence (P49652 whole entry): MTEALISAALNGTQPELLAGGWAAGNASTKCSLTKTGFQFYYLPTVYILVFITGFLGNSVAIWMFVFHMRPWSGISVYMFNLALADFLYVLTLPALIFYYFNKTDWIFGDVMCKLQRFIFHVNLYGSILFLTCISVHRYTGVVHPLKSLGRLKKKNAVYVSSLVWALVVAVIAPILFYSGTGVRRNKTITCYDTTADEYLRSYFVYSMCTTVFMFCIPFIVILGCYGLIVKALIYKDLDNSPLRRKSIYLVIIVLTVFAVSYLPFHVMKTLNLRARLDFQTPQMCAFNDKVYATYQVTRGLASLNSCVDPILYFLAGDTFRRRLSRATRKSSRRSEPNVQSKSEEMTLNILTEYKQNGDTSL
P2Y purinoceptor 4 (Homo sapiens), sequence (P51582 whole entry): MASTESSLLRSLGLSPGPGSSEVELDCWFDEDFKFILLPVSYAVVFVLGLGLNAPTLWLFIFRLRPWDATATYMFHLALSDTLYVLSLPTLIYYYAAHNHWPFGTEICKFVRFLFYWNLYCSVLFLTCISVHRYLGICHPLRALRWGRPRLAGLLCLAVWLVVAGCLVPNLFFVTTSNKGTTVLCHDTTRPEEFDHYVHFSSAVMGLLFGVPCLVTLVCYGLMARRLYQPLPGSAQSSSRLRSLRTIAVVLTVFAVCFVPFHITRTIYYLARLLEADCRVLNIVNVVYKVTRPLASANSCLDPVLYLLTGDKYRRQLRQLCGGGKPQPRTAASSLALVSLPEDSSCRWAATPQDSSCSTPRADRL
P2Y purinoceptor 2 (Homo sapiens), sequence (P41231 whole entry): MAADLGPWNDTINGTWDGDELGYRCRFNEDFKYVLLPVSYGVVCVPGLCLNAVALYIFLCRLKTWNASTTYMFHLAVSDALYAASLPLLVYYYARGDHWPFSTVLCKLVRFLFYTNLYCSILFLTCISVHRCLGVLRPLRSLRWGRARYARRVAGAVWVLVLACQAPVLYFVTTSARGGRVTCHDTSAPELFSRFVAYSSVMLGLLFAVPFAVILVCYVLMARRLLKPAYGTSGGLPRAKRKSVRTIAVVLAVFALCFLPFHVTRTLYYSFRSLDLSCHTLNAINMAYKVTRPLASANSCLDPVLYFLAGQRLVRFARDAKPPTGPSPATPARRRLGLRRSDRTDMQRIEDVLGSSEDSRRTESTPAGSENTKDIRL
T1 sequence (Q15077 whole entry): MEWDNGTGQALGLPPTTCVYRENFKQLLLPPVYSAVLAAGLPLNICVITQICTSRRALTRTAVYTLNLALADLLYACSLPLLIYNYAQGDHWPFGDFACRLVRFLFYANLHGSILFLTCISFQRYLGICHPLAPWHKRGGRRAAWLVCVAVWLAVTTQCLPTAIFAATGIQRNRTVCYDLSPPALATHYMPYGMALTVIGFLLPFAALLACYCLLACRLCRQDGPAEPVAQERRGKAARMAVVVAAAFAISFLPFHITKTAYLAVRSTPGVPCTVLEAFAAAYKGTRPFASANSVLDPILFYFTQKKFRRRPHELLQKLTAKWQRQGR
P2Y purinoceptor 6 (Mus musculus, UniProt Q9ERK9), sequence (Q9ERK9 whole entry): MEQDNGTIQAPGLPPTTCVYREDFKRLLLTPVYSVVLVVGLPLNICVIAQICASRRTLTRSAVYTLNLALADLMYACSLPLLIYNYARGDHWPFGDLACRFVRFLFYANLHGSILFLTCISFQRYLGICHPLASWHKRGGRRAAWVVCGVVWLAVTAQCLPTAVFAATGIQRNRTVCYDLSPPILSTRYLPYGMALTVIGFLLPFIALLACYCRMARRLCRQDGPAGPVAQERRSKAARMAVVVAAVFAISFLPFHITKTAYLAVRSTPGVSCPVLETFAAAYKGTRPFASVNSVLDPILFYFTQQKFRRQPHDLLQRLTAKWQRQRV
D(1B) dopamine receptor, sequence (P21918 whole entry): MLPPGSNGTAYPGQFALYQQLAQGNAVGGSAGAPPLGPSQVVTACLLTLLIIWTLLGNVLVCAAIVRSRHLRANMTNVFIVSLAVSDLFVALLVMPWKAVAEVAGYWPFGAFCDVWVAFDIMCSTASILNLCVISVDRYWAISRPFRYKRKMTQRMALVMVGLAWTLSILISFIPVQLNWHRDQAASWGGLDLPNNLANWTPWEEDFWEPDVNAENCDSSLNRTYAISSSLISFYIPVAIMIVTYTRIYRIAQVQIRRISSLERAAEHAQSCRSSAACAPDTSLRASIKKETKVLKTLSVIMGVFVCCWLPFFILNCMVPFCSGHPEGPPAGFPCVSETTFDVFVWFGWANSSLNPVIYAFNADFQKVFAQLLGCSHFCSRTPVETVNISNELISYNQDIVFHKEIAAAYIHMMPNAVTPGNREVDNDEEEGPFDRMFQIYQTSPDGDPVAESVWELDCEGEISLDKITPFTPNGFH
D(3) dopamine receptor, sequence (P35462 whole entry): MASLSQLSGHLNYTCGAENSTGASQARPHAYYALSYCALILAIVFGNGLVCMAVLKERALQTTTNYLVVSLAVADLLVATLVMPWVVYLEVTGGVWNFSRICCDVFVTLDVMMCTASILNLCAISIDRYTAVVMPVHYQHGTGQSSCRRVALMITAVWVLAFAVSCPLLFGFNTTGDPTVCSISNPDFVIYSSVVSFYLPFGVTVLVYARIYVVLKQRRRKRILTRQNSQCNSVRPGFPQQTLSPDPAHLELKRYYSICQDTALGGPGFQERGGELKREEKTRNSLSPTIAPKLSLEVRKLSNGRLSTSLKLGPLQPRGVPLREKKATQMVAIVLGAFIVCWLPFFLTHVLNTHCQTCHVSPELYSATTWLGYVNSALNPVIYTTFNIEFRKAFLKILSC
Beta-3 adrenergic receptor, sequence (P13945 whole entry): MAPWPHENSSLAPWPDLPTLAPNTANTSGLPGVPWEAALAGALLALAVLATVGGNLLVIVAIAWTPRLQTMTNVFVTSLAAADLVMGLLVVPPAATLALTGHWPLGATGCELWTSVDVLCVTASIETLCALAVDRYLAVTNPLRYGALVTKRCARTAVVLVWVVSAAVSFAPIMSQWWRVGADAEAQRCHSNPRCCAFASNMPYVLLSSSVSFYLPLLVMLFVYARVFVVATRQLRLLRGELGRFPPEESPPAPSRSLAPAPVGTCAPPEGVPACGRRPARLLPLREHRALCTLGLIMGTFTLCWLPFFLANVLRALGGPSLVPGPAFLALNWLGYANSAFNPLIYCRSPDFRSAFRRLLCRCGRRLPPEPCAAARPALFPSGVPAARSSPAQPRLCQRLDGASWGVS
Histamine H1 receptor, sequence (P35367 whole entry): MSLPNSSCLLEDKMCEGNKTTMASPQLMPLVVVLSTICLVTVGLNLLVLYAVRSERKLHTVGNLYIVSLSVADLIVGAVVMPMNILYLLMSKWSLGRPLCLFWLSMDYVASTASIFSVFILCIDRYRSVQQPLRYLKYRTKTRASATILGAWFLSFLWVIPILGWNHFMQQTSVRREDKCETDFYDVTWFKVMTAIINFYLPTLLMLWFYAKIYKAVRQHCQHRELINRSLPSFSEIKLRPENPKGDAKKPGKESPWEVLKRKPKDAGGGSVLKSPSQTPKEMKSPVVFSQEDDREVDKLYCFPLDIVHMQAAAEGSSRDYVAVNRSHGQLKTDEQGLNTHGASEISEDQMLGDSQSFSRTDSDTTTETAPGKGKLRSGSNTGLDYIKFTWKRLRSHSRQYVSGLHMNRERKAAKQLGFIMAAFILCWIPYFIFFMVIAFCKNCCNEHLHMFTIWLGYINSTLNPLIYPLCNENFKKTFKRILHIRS
Sigma non-opioid intracellular receptor 1, sequence (Q99720 whole entry): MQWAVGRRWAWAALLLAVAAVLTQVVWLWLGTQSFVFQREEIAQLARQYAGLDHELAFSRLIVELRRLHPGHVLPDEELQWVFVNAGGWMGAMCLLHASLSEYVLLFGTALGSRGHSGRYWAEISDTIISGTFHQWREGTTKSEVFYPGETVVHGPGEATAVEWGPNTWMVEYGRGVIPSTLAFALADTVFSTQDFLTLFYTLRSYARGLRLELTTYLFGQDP
P2Y purinoceptor 6 (Mus musculus), sequence (Q9ERK9 whole entry): as the sequence (Q9ERK9 whole entry) above
Sigma intracellular receptor 2, sequence (Q5BJF2 whole entry): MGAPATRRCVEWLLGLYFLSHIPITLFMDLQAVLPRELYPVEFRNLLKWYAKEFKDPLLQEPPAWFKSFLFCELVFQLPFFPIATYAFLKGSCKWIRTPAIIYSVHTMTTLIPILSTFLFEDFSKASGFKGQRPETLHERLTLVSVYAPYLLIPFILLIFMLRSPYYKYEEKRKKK

IC50 (P2Y purinoceptor 6 [1]): 5.35 µM
Compound: O=[N+]([O-])C1=Cc2cc(C#Cc3ccc(Cl)cc3)ccc2OC1C(F)(F)F (racemic)

IC50 (P2Y purinoceptor 6 [1]): 2.99 µM | IC50 (P2Y purinoceptor 6 [2]): 17.8 µM
Compound: O=[N+]([O-])C1=Cc2cc(F)cc(F)c2OC1C(F)(F)F (racemic)

IC50 (P2Y purinoceptor 6 [2]): 17.6 µM
Compound: O=[N+]([O-])C1=Cc2cccc(I)c2OC1C(F)(F)F (racemic)

Compound: CC[Si](C#Cc1ccc2c(c1)C=C([N+](=O)[O-])C(C(F)(F)F)O2)(CC)CC (racemic)
Activity [3]: < 30% | Activity [4]: < 30% | Activity [5]: < 30% | IC50 (P2Y purinoceptor 6 [2]): 4.94 µM | Activity (HEK293): 73%

IC50 (P2Y purinoceptor 6 [1]): 8.86 µM
Compound: O=[N+]([O-])C1=Cc2cc(C#Cc3ccc(F)cc3)ccc2OC1C(F)(F)F (racemic)

IC50 (P2Y purinoceptor 6 [2]): 31.6 µM | Ki (D(1B) dopamine receptor): 0.6 µM
Compound: O=[N+]([O-])C1=Cc2cc(C#Cc3ccc(CO)cc3)ccc2OC1C(F)(F)F (racemic)

Compound: CC[Si](C#Cc1cccc2c1C=C([N+](=O)[O-])C(C(F)(F)F)O2)(CC)CC (racemic)
IC50 (P2Y purinoceptor 6 [1]): 4.77 µM

IC50 (P2Y purinoceptor 6 [2]): 20.2 µM
Compound: O=[N+]([O-])C1=Cc2cc(Br)ccc2OC1C(F)(F)F (racemic)

IC50 (P2Y purinoceptor 6 [1]): 7.98 µM
Compound: O=[N+]([O-])C1=Cc2ccc(Cl)cc2OC1C(F)(F)F (racemic)

Ki [6]: 8.6 µM
Compound: O=[N+]([O-])C1=Cc2cc(F)ccc2OC1C(F)(F)F (racemic)

Compound: C[Si](C)(C)C#Cc1ccc2c(c1)C=C([N+](=O)[O-])C(C(F)(F)F)O2 (racemic)
Activity [3]: < 30% | Activity [4]: < 30% | Activity [5]: < 30% | Activity (HEK293): 58%

Activity [3]: < 30% | Activity [4]: < 30% | Activity [5]: < 30% | Activity [7]: 14%
Compound: O=C(O)c1ccc(C#Cc2ccc3c(c2)C=C([N+](=O)[O-])C(C(F)(F)F)O3)cc1 (racemic)
Activity (HEK293): 95%

IC50 (P2Y purinoceptor 6 [1]): 13.1 µM
Compound: O=[N+]([O-])C1=Cc2c(I)cccc2OC1C(F)(F)F (racemic)

IC50 (P2Y purinoceptor 6 [2]): 14.5 µM
Compound: O=[N+]([O-])C1=Cc2cc(F)cc(Br)c2OC1C(F)(F)F (racemic)

IC50 (P2Y purinoceptor 6 [2]): 185 µM
Compound: O=[N+]([O-])C1=Cc2ccccc2OC1C(F)(F)F (racemic)

Activity (P2Y purinoceptor 6 [8]; filed as antagonist): 43%
Compound: FC(F)(F)C1Oc2ccc(Cl)cc2-c2n[nH]nc21 (racemic)

IC50 (P2Y purinoceptor 6 [1]): 15.7 µM
Compound: O=[N+]([O-])C1=Cc2c(Cl)cccc2OC1C(F)(F)F (racemic)

IC50 (P2Y purinoceptor 6 [1]): 36.8 µM
Compound: CC1Oc2ccc(I)cc2C=C1[N+](=O)[O-] (racemic)

IC50 (P2Y purinoceptor 6 [1]): 33.1 µM
Compound: O=[N+]([O-])C1=Cc2cc(I)ccc2OC1C1CCC1 (racemic)

IC50 (P2Y purinoceptor 6 [1]): 3.69 µM | IC50 (P2Y purinoceptor 6 [2]): 15.2 µM
Compound: O=[N+]([O-])C1=Cc2cccc(Cl)c2OC1C(F)(F)F (racemic)

IC50 (P2Y purinoceptor 6 [2]): 30.8 µM | Ki (D(3) dopamine receptor): 0.78 µM | Ki (D(1B) dopamine receptor): 2.79 µM
Compound: O=[N+]([O-])C1=Cc2cc(Cl)ccc2OC1C(F)(F)F (racemic)

Compound: NC1Cc2ccccc2OC1C(F)(F)F (racemic)
Activity (P2Y purinoceptor 6 [8]): 0%

IC50 (P2Y purinoceptor 6 [2]): 28.7 µM
Compound: O=[N+]([O-])C1=Cc2cc(I)ccc2OC1C(F)(F)F (racemic)

Compound: CC[Si](C#Cc1ccc2c(c1)C=C([N+](=O)[O-])C(C1CC1)O2)(CC)CC (racemic)
Activity (P2Y purinoceptor 6 [8]; filed as antagonist): 50%

Compound: CC[Si](C#Cc1cccc2c1OC(C(F)(F)F)C([N+](=O)[O-])=C2)(CC)CC (racemic)
IC50 (P2Y purinoceptor 6 [1]): 0.461 µM | Activity [3]: 39.2% | Activity [4]: < 30% | Activity [5]: < 30% | IC50 (P2Y purinoceptor 6 [2]): 6.15 µM | Ki [9]: 1.1 µM | Ki [10]: 6.4 µM | Ki (Histamine H1 receptor): 3.5 µM | Ki [11]: 7.3 µM | Ki [12]: 4.2 µM | Activity (HEK293): 83%
